According to article PMC7584476, “Safety and efficacy of BAY1436032 in IDH1-mutant AML: phase I study results” (Leukemia, 2020):
Like-named read-outs stand apart in the source and are kept apart here.

Experiments:
[1] = Plasma pharmacokinetics of BAY1436032 (LC-MS/MS); type: in vivo, human; conditions: for AUC(0-t) / Cmax: geometric mean (CV)
Method: Plasma samples were collected at various times on C1-D1, C1-D2, C1-D8, and C1-D15 and stored frozen for PK assessments. Collection times on these days are indicated on Supplementary Fig. S1 (C1-D8 PK results are not shown). The evening dose of BAY1436032 was withheld on C1-D1 to facilitate assessment of the 24-h single-dose time point on C1-D2. Quantitative analysis of BAY1436032 (free acid) in plasma was performed as described in Supplementary Methods.
13 Pharmacokinetics: Determination of BAY1436032 in plasma
14 Quantitative analysis of BAY1436032 (free acid) in plasma was determined using a fully
15 validated method after protein precipitation with acetonitrile/0.4 mM ammonium acetate
16 (pH 3, 80:20, v/v) containing the internal standard, followed by separation employing
17 high-pressure liquid chromatography-tandem mass spectrometric detection (LC-MS/MS).
18 The method validation and sample analysis were performed in compliance with the
19 pertinent guidelines on Bioanalytical Method Validation of FDA (2001) and EMA (2011).
20 Samples were stored at or below -15°C and analyzed within 135 days of sampling.
22 concentration (C max), area under the concentration versus time curve from time 0 to
23 8 hours (AUC(0-8)), and AUC from time 0 to 12 hours (AUC(0-12)) were calculated using the
24 model-independent (compartment -free) method. The dose proportionality in the 300 mg
25 to 1500 mg dose range was evaluated by performing explorative analyses of variance
26 (ANOVA) on the log -transformed values of Cmax and AUC(0-12), calculated from single and
27 continuous BID dosing PK profiles. […]

wtIDH1 = conditions: preclinical; cited from earlier work

For `C[C@H]1C[C@@H](n2c(Nc3ccc(OC(F)(F)F)cc3)nc3cc(CCC(=O)O)ccc32)CC(C)(C)C1` [BAY1436032], the Accumulation ([1]; C1-D15, continuous BID) was “Minimal accumulation”, the Dose-proportionality of exposure ([1]; continuous BID administration) was “dose-proportionality was not apparent” and the AUC(0-t) ([1]; human, plasma, oral, 300 mg, C1-D1 single-dose, 300 mg, n=7, read-out: AUC(0-8)) was 6600 ng·h/mL. For the same molecule, the AUC(0-t) ([1]; human, plasma, oral, 300 mg, C1-D1 single-dose, 300 mg, n=7, read-out: AUC(0-12)) was 7440 ng·h/mL, the Cmax ([1]; human, plasma, oral, 300 mg, C1-D1 single-dose, 300 mg, n=7, read-out: Cmax) was 2000 ng/mL and the AUC(0-t) ([1]; human, plasma, oral, 300 mg, C1-D15 continuous BID, 300 mg BID, n=5, read-out: AUC(0-8)md) was 5920 ng·h/mL. The AUC(0-t) ([1]; human, plasma, oral, 300 mg, C1-D15 continuous BID, 300 mg BID, n=5, read-out: AUC(0-12)md) was 6750 ng·h/mL, the Cmax ([1]; human, plasma, oral, 300 mg, C1-D15 continuous BID, 300 mg BID, n=6, read-out: Cmax,md) was 1880 ng/mL and the AUC(0-t) ([1]; human, plasma, oral, 600 mg, C1-D1 single-dose, 600 mg, n=4, read-out: AUC(0-8)) was 12500 ng·h/mL. The AUC(0-t) ([1]; human, plasma, oral, 600 mg, C1-D1 single-dose, 600 mg, n=4, read-out: AUC(0-12)) was 15200 ng·h/mL, the Cmax ([1]; human, plasma, oral, 600 mg, C1-D1 single-dose, 600 mg, n=4, read-out: Cmax) was 3200 ng/mL and the AUC(0-t) ([1]; human, plasma, oral, 600 mg, C1-D15 continuous BID, 600 mg BID, n=3, read-out: AUC(0-8)md) was 22300 ng·h/mL. For the same molecule, the AUC(0-t) ([1]; human, plasma, oral, 600 mg, C1-D15 continuous BID, 600 mg BID, n=3, read-out: AUC(0-12)md) was 25400 ng·h/mL, the Cmax ([1]; human, plasma, oral, 600 mg, C1-D15 continuous BID, 600 mg BID, n=4, read-out: Cmax,md) was 5050 ng/mL and the AUC(0-t) ([1]; human, plasma, oral, 1200 mg, C1-D1 single-dose, 1200 mg, n=7, read-out: AUC(0-8)) was 20700 ng·h/mL. For the same molecule, the AUC(0-t) ([1]; human, plasma, oral, 1200 mg, C1-D1 single-dose, 1200 mg, n=7, read-out: AUC(0-12)) was 24800 ng·h/mL, the Cmax ([1]; human, plasma, oral, 1200 mg, C1-D1 single-dose, 1200 mg, n=7, read-out: Cmax) was 5310 ng/mL and the AUC(0-t) ([1]; human, plasma, oral, 1200 mg, C1-D15 continuous BID, 1200 mg BID, n=5, read-out: AUC(0-12)md) was 21800 ng·h/mL. The AUC(0-t) ([1]; human, plasma, oral, 1200 mg, C1-D15 continuous BID, 1200 mg BID, n=6, read-out: AUC(0-8)md) was 22900 ng·h/mL, the Cmax ([1]; human, plasma, oral, 1200 mg, C1-D15 continuous BID, 1200 mg BID, n=7, read-out: Cmax,md) was 6050 ng/mL and the AUC(0-t) ([1]; human, plasma, oral, 1500 mg, C1-D1 single-dose, 1500 mg, n=9, read-out: AUC(0-8)) was 42200 ng·h/mL. For the same molecule, the AUC(0-t) ([1]; human, plasma, oral, 1500 mg, C1-D1 single-dose, 1500 mg, n=9, read-out: AUC(0-12)) was 50300 ng·h/mL, the Cmax ([1]; human, plasma, oral, 1500 mg, C1-D1 single-dose, 1500 mg, n=9, read-out: Cmax) was 9820 ng/mL and the AUC(0-t) ([1]; human, plasma, oral, 1500 mg, C1-D15 continuous BID, 1500 mg BID, n=3, read-out: AUC(0-12)md) was 44500 ng·h/mL. The AUC(0-t) ([1]; human, plasma, oral, 1500 mg, C1-D15 continuous BID, 1500 mg BID, n=5, read-out: AUC(0-8)md) was 34000 ng·h/mL, the Cmax ([1]; human, plasma, oral, 1500 mg, C1-D15 continuous BID, 1500 mg BID, n=7, read-out: Cmax,md) was 9460 ng/mL and the Tmax ([1]; human, plasma, oral, single-dose and continuous BID administration, read-out: Time of maximum plasma concentrations) was 3 to 4 h. For the same molecule, the Half-life ([1]; in vivo) was “relatively short”, the “Time at which plasma concentrations were detectable” value ([1]; single oral administration) was 30 min and the “Increase of exposure with dose” value ([1]; single-dose, 300 to 1500 mg, dose-proportional manner) was 1.6–2.0 fold. The “Activity against wtIDH1” value (wtIDH1) was “little activity”.
